Measured values as given in the Deep4Chem optical property database.

Experiment: solvent given as SMILES

SMILES: COc1cc(C=C(C#Cc2ccccc2)C#Cc2ccccc2)c(OC)cc1C=C(C#Cc1ccccc1)C#Cc1ccccc1
- emission maximum (in ClC(Cl)Cl): 522 nm

SMILES: CCCCCCCN1C(=CC2=C([O-])C(=CC3=[N+](CCCCCCC)c4ccccc4C3(C)C)C2=C(C#N)C#N)Sc2ccccc21
- emission maximum (in C1COCCO1): 709 nm
- emission maximum (in CCO): 699 nm
- emission maximum (in CN(C)C=O): 702 nm
- emission maximum (in ClC(Cl)Cl): 709 nm

SMILES: Cc1ccc(-n2cccc2)cc1
- emission maximum (in CC#N): 312 nm
- emission maximum (in CCCCCC): 310 nm

SMILES: CCCCC1(CCCC)c2cc(C#Cc3ccc(C=C4c5ccccc5C=Cc5ccccc54)cc3)ccc2-c2ccc(C#Cc3ccc(C=C4c5ccccc5C=Cc5ccccc54)cc3)cc21
- emission maximum (in C1CCOC1): 405 nm

SMILES: COc1nc(Nc2ccc3c4cccc5cccc(c6cccc2c63)c54)nc(OC)n1
- emission maximum (in C1COCCO1): 478 nm
- emission maximum (in CC#N): 479 nm
- emission maximum (in CCCCOCCCC): 477 nm
- emission maximum (in CCOC(C)=O): 477 nm

SMILES: O=P1(c2ccccc2)c2ccccc2-c2sc3ccccc3c21 (stereo not drawn)
- emission maximum (in C1CCCCC1): 417 nm
- emission maximum (in CC#N): 427 nm
- emission maximum (in CCO): 434 nm
- emission maximum (in ClCCl): 428 nm

SMILES: CN1C(=O)/C(=C/c2ccncc2)N=C1/C=C/c1ccccc1
- emission maximum (in C1COCCO1): 546 nm
- emission maximum (in CC#N): 550 nm
- emission maximum (in CCO): 550 nm
- emission maximum (in CCOC(C)=O): 544 nm
- emission maximum (in O): 560 nm

SMILES: CC(C)[Si](C#Cc1c2ccccc2c(C#C[Si](C(C)C)(C(C)C)C(C)C)c2nc3cc4c(cc3nc12)C1c2ccccc2C4c2ccccc21)(C(C)C)C(C)C
- emission maximum (in CCCCCC): 568 nm
- emission maximum (in ClCCl): 593 nm

SMILES: CCn1c(-c2ccc(-c3ccc4c(c3)C(C)(C)c3ccccc3-4)cc2)c(-c2ccc3ccccc3c2)c(-c2ccc3ccccc3c2)c1-c1ccc(-c2ccc3c(c2)C(C)(C)c2ccccc2-3)cc1
- emission maximum (in CCOC(C)=O): 442 nm

SMILES: CC1=N/C(=C\c2cccc(N(C)C)c2)C(=O)N1CCO
- emission maximum (in C1CCOC1): 585 nm
- emission maximum (in CC#N): 656 nm
- emission maximum (in CCCCCC): 506 nm

SMILES: CCCCCCCCCCCCOc1cc2c3cc(OCCCCCCCCCCCC)c(OCCCCCCCCCCCC)cc3c3c(cc(OCCCCCCCCCCCC)c4nc5cc(C#Cc6ccc(OCCCCCCCC)cc6)c(C#Cc6ccc(OCCCCCCCC)cc6)cc5nc43)c2cc1OCCCCCCCCCCCC
- emission maximum (in ClC(Cl)Cl): 657 nm

SMILES: Cc1ccc2nc(-c3cccc4nc(C)[nH]c(=O)c34)[nH]c2c1
- emission maximum (in CN(C)C=O): 431 nm

SMILES: CC(C)(C)c1ccc(C2=C(c3ccc(C(C)(C)C)cc3)C(c3ccc(C(C)(C)C)cc3)=[N+]3C2=C(c2ccccc2)c2c(-c4ccc(C(C)(C)C)cc4)c(-c4ccc(C(C)(C)C)cc4)c(-c4ccc(C(C)(C)C)cc4)n2[B-]3(F)F)cc1
- emission maximum (in C1CCCCC1): 634 nm
- emission maximum (in C1CCOC1): 637 nm
- emission maximum (in CC#N): 629 nm
- emission maximum (in Cc1ccccc1): 639 nm
- emission maximum (in ClCCl): 636 nm

SMILES: Cc1n[nH]c2c1C(c1ccc([N+](=O)[O-])cc1)C(C#N)=C(N)O2 (stereo not drawn)
- emission maximum (in C1CCOC1): 393 nm
- emission maximum (in C1COCCO1): 390 nm
- emission maximum (in CC#N): 407 nm
- emission maximum (in CCCCO): 410 nm
- emission maximum (in CCCO): 411 nm
- emission maximum (in CCO): 414 nm
- emission maximum (in CCOC(C)=O): 396 nm
- emission maximum (in CN(C)C=O): 405 nm
- emission maximum (in CO): 417 nm
- emission maximum (in CS(C)=O): 404 nm
- emission maximum (in Cc1ccccc1): 387 nm
- emission maximum (in ClCCl): 402 nm

SMILES: O=C(O)COc1cccc(OCC(=O)O)c1-c1c2ccc(=[N+]3CCCCC3)cc-2oc2cc(N3CCCCC3)ccc12
- emission maximum (in CCO): 580 nm
- emission maximum (in O): 594 nm

SMILES: COc1cc(OC)c2cc(-c3ccccc3CC#N)c(=O)oc2c1
- emission maximum (in ClC(Cl)Cl): 422 nm

SMILES: CCCCC(CC)COc1ccc2nc(-c3ccc(-c4cccs4)s3)sc2c1 (stereo not drawn)
- emission maximum (in ClCCl): 438 nm

SMILES: C1=C(c2ccccc2)B(c2ccccc2)Nc2c1ccc1ccccc21
- emission maximum (in C1CCCCC1): 396 nm

SMILES: CC1(C)CC(NCc2ccc3ccc4cccc5ccc2c3c45)CC(C)(C)N1
- emission maximum (in C1CCCCC1): 375 nm
- emission maximum (in CC#N): 375 nm
- emission maximum (in CO): 375 nm
- emission maximum (in ClC(Cl)Cl): 396 nm

SMILES: O=C1c2ccccc2-c2cnccc21
- emission maximum (in CC#N): 516.76 nm
- emission maximum (in CCCCCC): 464.17 nm

SMILES: O=c1oc2cc3ccccc3cc2nc1-c1ccccc1
- emission maximum (in CC#N): 538 nm
- emission maximum (in CCCCCC): 500 nm
- emission maximum (in CO): 548 nm
- emission maximum (in c1ccccc1): 514 nm

SMILES: O=S(=O)(c1ccc(N(c2ccccc2)c2ccccc2)cc1)c1ccc(N(c2ccccc2)c2ccccc2)cc1
- emission maximum (in Cc1ccccc1): 402 nm
- emission maximum (in O=P(c1ccccc1)(c1ccccc1)c1ccccc1Oc1ccccc1P(=O)(c1ccccc1)c1ccccc1): 421 nm

SMILES: COC(=O)c1cc(=O)n(C)c2cc(-c3ccc(N4CCN(C)CC4)cc3)sc12
- emission maximum (in CC#N): 587 nm
- emission maximum (in ClCCl): 550 nm

SMILES: Cc1ccc(-c2ccc(/C=C/c3cccs3)cn2)nc1
- emission maximum (in CC#N): 422 nm

SMILES: c1ccc(-c2cc(-c3ccc4c(c3)C3(c5ccccc5-c5ccccc53)c3cc(-c5cc(-c6ccccn6)nc(-c6ccccn6)c5)ccc3-4)cc(-c3ccccn3)n2)nc1
- emission maximum (in ClC(Cl)Cl): 395 nm

SMILES: N#Cc1cccc(-c2cccc(-c3nc(-c4cccc(-c5cccc(C#N)c5)c4)nc(-c4cccc(-c5cccc(C#N)c5)c4)n3)c2)c1
- emission maximum (in ClCCl): 420 nm

SMILES: N#Cc1c(-n2c3ccc(-c4ccccc4)cc3c3cc(-c4ccccc4)ccc32)c(-n2c3ccccc3c3ccccc32)c(-n2c3ccc(-c4ccccc4)cc3c3cc(-c4ccccc4)ccc32)c(-n2c3ccccc3c3ccccc32)c1-n1c2ccc(-c3ccccc3)cc2c2cc(-c3ccccc3)ccc21
- emission maximum (in Cc1ccccc1): 492 nm

SMILES: CC(C)[Si](C#Cc1c2cc3ccccc3cc2c(C#C[Si](C(C)C)(C(C)C)C(C)C)c2nc3c(ccc4cc5ccccc5cc43)nc12)(C(C)C)C(C)C
- emission maximum (in CCCCCC): 654 nm

SMILES: CCCCCCCCCCCCC(CCCCCCCCCC)Cn1c2cc(/C=C/C=C/c3nc4ccccc4s3)c3cccc4c5cccc6c(/C=C/C=C/c7nc8ccccc8s7)cc1c(c65)c2c34 (stereo not drawn)
- emission maximum (in C1CCCCC1): 588 nm
- emission maximum (in CC#N): 608 nm
- emission maximum (in Cc1ccccc1): 604 nm
- emission maximum (in ClCCl): 612 nm

SMILES: CC[n+]1nc2cc3c4c(c2c2cc(F)ccc21)CCCN4CCC3
- emission maximum (in O): 564 nm

SMILES: c1ccc(-c2ccc(-c3nc(-c4ccccc4)c(N(c4ccccc4)c4ccccc4)[se]3)cc2)cc1
- emission maximum (in ClC(Cl)Cl): 468 nm

SMILES: CCOC(=O)COc1ccccc1C(c1c(C)[nH]c2ccccc12)c1c(C)[nH]c2ccccc12
- emission maximum (in C1CCCCC1): 328 nm
- emission maximum (in CC#N): 348 nm
- emission maximum (in CO): 349 nm
- emission maximum (in O): 350 nm

SMILES: CN(C)CCN(Cc1c2ccccc2cc2ccccc12)c1ccc([N+](=O)[O-])cc1
- emission maximum (in C1CCCCC1): 411 nm
- emission maximum (in C1CCOC1): 414 nm
- emission maximum (in CC#N): 389 nm
- emission maximum (in CC(C)=O): 387 nm
- emission maximum (in CCO): 410 nm
- emission maximum (in CN(C)C=O): 389 nm
- emission maximum (in CO): 389 nm
- emission maximum (in ClC(Cl)Cl): 415 nm

SMILES: Cc1cc(O)c(C(C)C)cc1/N=C/c1ccc(C(F)(F)F)cc1
- emission maximum (in C1CCCCC1): 398 nm
- emission maximum (in C1CCOC1): 426 nm
- emission maximum (in C1COCCO1): 424 nm
- emission maximum (in CC#N): 425 nm
- emission maximum (in CC(C)(C)O): 431 nm
- emission maximum (in CC(C)O): 434 nm
- emission maximum (in CCCCCC): 401 nm
- emission maximum (in CCCCO): 436 nm
- emission maximum (in CCO): 429 nm
- emission maximum (in CCOC(C)=O): 421 nm
- emission maximum (in CN(C)C=O): 434 nm
- emission maximum (in CO): 434 nm
- emission maximum (in CS(C)=O): 439 nm
- emission maximum (in ClC(Cl)Cl): 430 nm
- emission maximum (in ClCCl): 424 nm
- emission maximum (in O): 449 nm
- emission maximum (in OCCO): 438 nm

SMILES: N#CC(C#N)=Cc1ccc(-c2ccc(O)c(-c3nc4ccccc4s3)c2)o1
- emission maximum (in CCO): 632 nm
- emission maximum (in ClCCl): 612 nm
- emission maximum (in O): 652 nm
